As usually defined, the viability is a read-out of living cells in per cent, often relative to untreated cells.

SMILES strings stand for the structures.

Data on 71 compounds can be found in PMC12040169 (PLOS Biology, 2025).

This series can be described thus: in vitro. As to conditions: human, hela cells, % viability.

`FC(F)(F)Oc1ccc(-c2c[nH]c([C@@H]3COCCN3C3CCNCC3)n2)cc1` [CBK289312]: the viability at 28.5 h, 10 µM worked out at 97.8%. In the case of `OCc1cc(CC2(NCc3cccc4c3OCO4)COC2)no1` [CBK289314], the viability at 28.5 h, 10 µM came to 90.6%. The value for `Clc1ccc(-c2c[nH]c([C@@H]3COCCN3Cc3c[nH]cn3)n2)cc1` [CBK289316] was 105%; that for `FC(F)(F)c1ccc(-c2c[nH]c([C@@H]3COCCN3Cc3csnn3)n2)cc1` [CBK289318] was 92.2%.

With `c1cncc(CN2CCOC[C@H]2c2nc(-c3cccnc3)c[nH]2)c1` [CBK289323], the viability at 28.5 h, 10 µM stood at 86.3%.

For `O=C1N[C@@H]2CCN(C(=O)C3CC3)[C@@H]2C(=O)N1c1ccc(F)cc1` [CBK289324], the viability at 28.5 h, 10 µM was 99.6%. With `CC(C)(C)C(=O)N1CC[C@H]2NC(=O)N(c3ccc(F)cc3)C(=O)[C@H]21` [CBK289328], the viability at 28.5 h, 10 µM is 86.4%. Regarding `O=C(O)CCC(=O)N1CC[C@H]2NC(=O)N(c3ccc(F)cc3)C(=O)[C@H]21` [CBK289329], the viability at 28.5 h, 10 µM was found to be 103%. The value for `O=C(N[C@H]1CCN2C(=O)c3cc(-c4ccc5c(c4)OCO5)ccc3NC(=O)[C@H]12)C1CCCC1` [CBK289333] was 103%; that for `O=C(N[C@H]1CCN2C(=O)c3cc(Br)ccc3NC(=O)[C@H]12)c1cccc(F)c1` [CBK289334] was 82.3%; that for `O=C(N[C@H]1CCN2C(=O)c3cc(-c4cccs4)ccc3NC(=O)[C@H]12)c1cccs1` [CBK289336] was 91.8%. The value for `O=C(N[C@H]1CCN2C(=O)c3cc(-c4cccs4)ccc3NC(=O)[C@H]12)c1cnccn1` [CBK289337] was 116%; that for `O=C(N[C@H]1CCN2C(=O)c3cc(-c4ccsc4)ccc3NC(=O)[C@H]12)c1cccc(F)c1` [CBK289339] was 92.6%.

Turning to `O=C1Nc2cc(Cl)ccc2C(=O)N2CC[C@H](NC(=O)N3CCOCC3)[C@@H]12` [CBK289340], the viability at 28.5 h, 10 µM stood at 87.7%. For the compound `O=C1Nc2cc(Cl)ccc2C(=O)N2CC[C@H](NS(=O)(=O)c3cccs3)[C@@H]12` [CBK289341], the viability at 28.5 h, 10 µM stood at 108%. Take `O=C(O)COCC(=O)N[C@H]1CCN2C(=O)c3ccc(Cl)cc3NC(=O)[C@H]12` [CBK289342]: the viability at 28.5 h, 10 µM came out at 90%. Consider `O=C1Nc2ccc(/C=C/c3ccccc3)cc2C(=O)N2CC[C@H](NC(=O)N3CCOCC3)[C@@H]12` [CBK289344], for which the viability at 28.5 h, 10 µM stood at 98.1%. `CC(C)NC(=O)N[C@H]1CCN2C(=O)c3cc(-c4ccc(F)cc4F)ccc3NC(=O)[C@H]12` [CBK289346]: the viability at 28.5 h, 10 µM came out at 86.8%. In the case of `Cc1cccc(-c2ccc3c(c2)C(=O)N2CC[C@H](NC(=O)c4cnccn4)[C@H]2C(=O)N3)c1C` [CBK289348], the viability at 28.5 h, 10 µM amounted to 87.2%. The value for `O=C(N[C@H]1CCN2C(=O)c3cc(-c4ccccc4)ccc3NC(=O)[C@H]12)C1CCCC1` [CBK289349] was 91.6%; that for `O=C(N[C@H]1CCN2C(=O)c3cc(-c4ccccc4)ccc3NC(=O)[C@H]12)c1cccs1` [CBK289350] was 85.9%; that for `CC(C)(C)CC(=O)N[C@H]1C[C@H]2C(=O)Nc3ccccc3C(=O)N2C1` [CBK289352] was 96.2%. As for `COCC(=O)N[C@H]1C[C@H]2C(=O)Nc3ccccc3C(=O)N2C1` [CBK289353], the viability at 28.5 h, 10 µM is 91.7%.

Turning to `O=C(N[C@H]1C[C@H]2C(=O)Nc3ccccc3C(=O)N2C1)c1ccccc1` [CBK289354], the viability at 28.5 h, 10 µM was 103%. For `COc1ccc(C(=O)N[C@H]2C[C@H]3C(=O)Nc4ccccc4C(=O)N3C2)cc1` [CBK289355], the viability at 28.5 h, 10 µM worked out at 84.7%. Take `CS(=O)(=O)N[C@H]1C[C@H]2C(=O)Nc3ccc(-c4cccs4)cc3C(=O)N2C1` [CBK289359]: the viability at 28.5 h, 10 µM is 95.7%. The value for `COCC(=O)N[C@H]1C[C@H]2C(=O)Nc3ccc(-c4ccsc4)cc3C(=O)N2C1` [CBK289360] was 96.6%.

For the compound `O=C(N[C@H]1C[C@H]2C(=O)Nc3ccc(-c4ccsc4)cc3C(=O)N2C1)c1ccccc1` [CBK289361], the viability at 28.5 h, 10 µM was found to be 91%. `CC(C)NC(=O)N1CC[C@H](c2nc3ncccc3[nH]2)C1` [CBK289369]: the viability at 28.5 h, 10 µM stood at 101%.

For the compound `Cc1ccc2oc([C@H]3CCN(S(C)(=O)=O)C3)nc2c1` [CBK289371], the viability at 28.5 h, 10 µM was determined as 97.2%. On to `O=C(NC1CCCCC1)N1CC[C@H](c2nc3ccccc3o2)C1` [CBK289372], for which the viability at 28.5 h, 10 µM was 88.4%. In the case of `CS(=O)(=O)N1CC[C@H](c2nc3ccccc3s2)C1` [CBK289374], the viability at 28.5 h, 10 µM turned out to be 77.8%. For `Cc1ccc2[nH]c([C@H]3CCN(C(=O)NC(C)C)C3)nc2c1` [CBK289375], the viability at 28.5 h, 10 µM was found to be 90.8%.

On to `O=C(c1cncnc1)N1CC[C@H](c2nc3cc(F)ccc3[nH]2)C1` [CBK289376], for which the viability at 28.5 h, 10 µM is 96.8%. For `COc1ccc2[nH]c([C@H]3CCN(S(C)(=O)=O)C3)nc2c1` [CBK289377], the viability at 28.5 h, 10 µM was determined as 111%. The value for `N#Cc1ccc2nc([C@H]3CCN(C(=O)c4ccccc4)C3)[nH]c2c1` [CBK289379] was 92.4%.

With `N#Cc1ccc2nc([C@H]3CCN(C(=O)C4CCCCC4)C3)[nH]c2c1` [CBK289380], the viability at 28.5 h, 10 µM turned out to be 90%.

With `CCS(=O)(=O)c1ccc2oc([C@H]3CCN(S(=O)(=O)c4ccccc4)C3)nc2c1` [CBK289382], the viability at 28.5 h, 10 µM turned out to be 88.2%. Regarding `CN1CC[C@H](c2nc3ncccc3[nH]2)C1` [CBK289384], the viability at 28.5 h, 10 µM was 76.8%. The value for `CS(=O)(=O)c1ccc(CN2CC[C@H](c3nc4ncccc4[nH]3)C2)cc1` [CBK289385] was 101%; that for `Cc1ccc2oc([C@H]3CCN(Cc4ccc(C(=O)O)cc4)C3)nc2c1` [CBK289386] was 100%; that for `c1ccc2sc([C@H]3CCNC3)nc2c1` [CBK289389] was 91.2%. Consider `Cc1nnc([C@H]2CCN(Cc3ccc(F)cc3)C2)o1` [CBK289391], for which the viability at 28.5 h, 10 µM was found to be 88.4%. For `Cc1nnc([C@H]2CCN(Cc3ccc4c(c3)OCO4)C2)o1` [CBK289392], the viability at 28.5 h, 10 µM worked out at 111%.

`N#Cc1cccc(CN2CC[C@H](c3nnc(-c4ccco4)o3)C2)c1` [CBK289394]: the viability at 28.5 h, 10 µM is 92.5%. Turning to `CC(=O)N1CCC(N2CC[C@H](c3nnc(-c4ccco4)o3)C2)CC1` [CBK289395], the viability at 28.5 h, 10 µM was found to be 86.9%.

In the case of `c1ccc(CN2CC[C@H](c3nnc(-c4cccnc4)o3)C2)cc1` [CBK289397], the viability at 28.5 h, 10 µM amounted to 85.6%.

Consider `c1cncc(-c2nnc([C@H]3CCN(C4CCOCC4)C3)o2)c1` [CBK289398], for which the viability at 28.5 h, 10 µM was 93.5%. For the compound `COc1ccc(-c2nnc([C@H]3CCN(Cc4cccc(C#N)c4)C3)o2)cc1` [CBK289400], the viability at 28.5 h, 10 µM was found to be 94.8%. With `COc1ccc(-c2nnc([C@H]3CCN(Cc4ccccn4)C3)o2)cc1` [CBK289401], the viability at 28.5 h, 10 µM is 93.4%. Regarding `CC(=O)N1CCC(N2CC[C@H](c3nnc(C(C)(C)C)o3)C2)CC1` [CBK289404], the viability at 28.5 h, 10 µM stood at 82.4%.

Regarding `Cc1ccc(S(=O)(=O)N2CC[C@H](c3nnc(-c4ccccc4)o3)C2)cc1` [CBK289405], the viability at 28.5 h, 10 µM came out at 111%.

Consider `CC(C)(C)c1nnc([C@H]2CCN(C(=O)CCC(=O)O)C2)o1` [CBK289406], for which the viability at 28.5 h, 10 µM came to 96.1%.

Turning to `CN(C)c1ccc(-c2nnc([C@H]3CCN(C(=O)c4ccccc4)C3)o2)cc1` [CBK289407], the viability at 28.5 h, 10 µM came to 85.7%.

Take `COCC(=O)N1CC[C@H](c2nnc(-c3ccc(C)cc3)o2)C1` [CBK289410]: the viability at 28.5 h, 10 µM came out at 114%. On to `Cc1ccc(-c2nnc([C@H]3CCN(C(=O)NCc4ccccc4)C3)o2)cc1` [CBK289411], for which the viability at 28.5 h, 10 µM turned out to be 93%. As to `O=C(C1CCCCC1)N1CC[C@H](c2nnc(-c3cccnc3)o2)C1` [CBK289412], the viability at 28.5 h, 10 µM turned out to be 103%. For `CC(=O)N1CC[C@H](c2nc3cccc(C(N)=O)c3[nH]2)C1` [CBK289415], the viability at 28.5 h, 10 µM was 98.3%. `Cn1c([C@H]2CCN(C(=O)c3cnccn3)C2)nc2ccccc21` [CBK289416]: the viability at 28.5 h, 10 µM was found to be 110%.

`CC(C)C[C@@H]1N[C@H](C(=O)NC2CCC2)Cc2cn(Cc3nccn3C)c3cccc1c23` [CBK289422]: the viability at 28.5 h, 10 µM is 101%. For the compound `CC(C)C[C@@H]1N[C@H](C(=O)NC2CC2)Cc2cn(Cc3nccn3C)c3cccc1c23` [CBK289423], the viability at 28.5 h, 10 µM was determined as 108%.

`C#CCNC(=O)[C@@H]1Cc2cn(Cc3cc(C)on3)c3cccc(c23)[C@H](CC(C)C)N1` [CBK289426]: the viability at 28.5 h, 10 µM worked out at 90.4%.

Turning to `CC(C)C[C@@H]1N[C@H](C(=O)NCC2CCOCC2)Cc2c[nH]c3cccc1c23` [CBK289427], the viability at 28.5 h, 10 µM came to 103%. The value for `C[C@@H]1C(=O)O[C@H]2[C@H]1CC[C@@]1(C)Cc3sc(NC(=O)CCC(=O)O)nc3[C@@H](C)[C@H]21` [CBK289429] was 98.7%. For the compound `C[C@H](C(=O)N1CCCC1)C1CC[C@@]2(C)Cc3sc(NC(=O)C4CC4)nc3[C@@H](C)[C@@H]2[C@H]1O` (some centres unmarked) [CBK289432], the viability at 28.5 h, 10 µM amounted to 103%.

On to `CC(=O)N[C@H]1CC[C@]2(C)CCC([C@H](C)C(=O)NC3CCCC3)[C@H](O)[C@H]2[C@@H]1C` (some centres unmarked) [CBK289436], for which the viability at 28.5 h, 10 µM stood at 79.6%. Regarding `COC[C@H]1CCCN1C(=O)[C@@H](C)C1CC[C@@]2(C)CC[C@H](NC(C)=O)[C@@H](C)[C@@H]2[C@H]1O` (some centres unmarked) [CBK289438], the viability at 28.5 h, 10 µM was found to be 110%. The value for `CC(=O)N[C@H]1CC[C@]2(C)CCC([C@H](C)C(=O)N3CCCCC3)[C@H](O)[C@H]2[C@@H]1C` (some centres unmarked) [CBK289439] was 89.4%; that for `C[C@H]1[C@@H]2[C@@H](O)C([C@H](C)C(=O)N3CCCC3)CC[C@@]2(C)CC[C@@H]1NC(=O)c1ccccc1` (some centres unmarked) [CBK289441] was 106%; that for `CCN(CC)C(=O)[C@@H](C)C1CC[C@@]2(C)CC[C@H](NC(=O)C3CC3)[C@@H](C)[C@@H]2[C@H]1O` (some centres unmarked) [CBK289443] was 97.5%. For `C[C@H]1[C@@H]2[C@@H](O)C([C@H](C)C(=O)NCc3ccccn3)CC[C@@]2(C)CC[C@@H]1NC(=O)C1CC1` (some centres unmarked) [CBK289445], the viability at 28.5 h, 10 µM is 97.2%.
